{"source": "patent US7259140B2", "about": "“Heparin-binding peptides and uses thereof” (Thomas Jefferson University, priority 2003, dated 2007)", "assay_type_in_all_cases": "biochemical, human", "key": {"[1]": {"tested_on": "anti-Factor Xa Activity of Unfractionated Heparin", "experiment": "Anti-Factor Xa assay: neutralization of unfractionated heparin in citrate or plasma in vitro", "settings": "UFH 0.7 U/ml", "in_short": "(§1)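 Chromogenic anti-Factor Xa kit run with UFH, enoxaparin (Lovenox) or danaparoid (Orgaran) in 0.32% citrate or citrated plasma from three volunteers. Heparin/ATIII complex formed, peptide added, then Factor Xa and dye substrate; absorbance at 405 nm, inversely proportional to remaining anti-Factor Xa activity.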"}, "[2]": {"tested_on": "anti-Factor Xa Activity of the Low Molecular Weight Heparin Lovenox ®", "experiment": "Anti-Factor Xa assay (Stachrom Heparin kit): neutralization of Lovenox in citrate or plasma in vitro", "settings": "for Lovenox ® Neutralized: Lovenox 0.7 U/ml", "in_short": "as §1"}, "[3]": {"tested_on": "Lovenox ® Activity in Blood from Patients Treated with Lovenox ®", "experiment": "Neutralizing Lovenox activity in blood from patients treated with Lovenox (anti-Factor Xa assay)", "settings": "Peptide 12 μg/ml", "in_short": "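Blood came from consenting volunteers already on Lovenox® therapy. Neutralizing peptides were tested as a dose response from 1–60 μg/ml. Each point is mean ± SD of triplicate analyses on one patient's blood sample.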"}}}
{"sequence": "ARKKAAKAARKKAAKAARKKAAKAVLVLVL [(ARKKAAKA)3VLVLVL]", "values": [{"measurement": "Unfractionated Heparin Neutralized", "setting": "[1]; 1 μg/ml Peptide, A Plasma", "value": "0.249 ± 0.129", "unit": "U/ml"}, {"measurement": "Unfractionated Heparin Neutralized", "setting": "[1]; 1 μg/ml Peptide, B Plasma", "value": "0.142 ± 0.040", "unit": "U/ml"}, {"measurement": "Unfractionated Heparin Neutralized", "setting": "[1]; 1 μg/ml Peptide, C Plasma", "value": "0.114 ± 0.056", "unit": "U/ml"}, {"measurement": "Unfractionated Heparin Neutralized", "setting": "[1]; 1 μg/ml Peptide, Citrate", "value": "0.150 ± 0.023", "unit": "U/ml"}, {"measurement": "Unfractionated Heparin Neutralized", "setting": "[1]; 6 μg/ml Peptide, A Plasma", "value": "0.667 ± 0.019", "unit": "U/ml"}, {"measurement": "Unfractionated Heparin Neutralized", "setting": "[1]; 6 μg/ml Peptide, B Plasma", "value": "0.598 ± 0.016", "unit": "U/ml"}, {"measurement": "Unfractionated Heparin Neutralized", "setting": "[1]; 6 μg/ml Peptide, C Plasma", "value": "0.572 ± 0.018", "unit": "U/ml"}, {"measurement": "Unfractionated Heparin Neutralized", "setting": "[1]; 6 μg/ml Peptide, Citrate", "value": "0.576 ± 0.060", "unit": "U/ml"}, {"measurement": "Unfractionated Heparin Neutralized", "setting": "[1]; 12 μg/ml Peptide, A Plasma", "value": "0.570 ± 0.119", "unit": "U/ml"}, {"measurement": "Unfractionated Heparin Neutralized", "setting": "[1]; 12 μg/ml Peptide, B Plasma", "value": "0.585 ± 0.005", "unit": "U/ml"}, {"measurement": "Unfractionated Heparin Neutralized", "setting": "[1]; 12 μg/ml Peptide, C Plasma", "value": "0.575 ± 0.013", "unit": "U/ml"}, {"measurement": "Unfractionated Heparin Neutralized", "setting": "[1]; 12 μg/ml Peptide, Citrate", "value": "0.595 ± 0.021", "unit": "U/ml"}, {"measurement": "Lovenox ® Neutralized", "setting": "[2]; 1 μg/ml Peptide, A Plasma", "value": "0.070 ± .036 U/ml"}, {"measurement": "Lovenox ® Neutralized", "setting": "[2]; 1 μg/ml Peptide, B Plasma", "value": "0.030 ± 0.020", "unit": "U/ml"}, {"measurement": "Lovenox ® Neutralized", "setting": "[2]; 1 μg/ml Peptide, C Plasma", "value": "0.005 + 0.007 U/ml"}, {"measurement": "Lovenox ® Neutralized", "setting": "[2]; 1 μg/ml Peptide, Citrate", "value": "0.064 ± .046 U/ml"}, {"measurement": "Lovenox ® Neutralized", "setting": "[2]; 6 μg/ml Peptide, A Plasma", "value": "0.250 ± .012 U/ml"}, {"measurement": "Lovenox ® Neutralized", "setting": "[2]; 6 μg/ml Peptide, B Plasma", "value": "0.234 ± 0.032", "unit": "U/ml"}, {"measurement": "Lovenox ® Neutralized", "setting": "[2]; 6 μg/ml Peptide, C Plasma", "value": "0.153 ± 0.031", "unit": "U/ml"}, {"measurement": "Lovenox ® Neutralized", "setting": "[2]; 6 μg/ml Peptide, Citrate", "value": "0.298 ± .049 U/ml"}, {"measurement": "Lovenox ® Neutralized", "setting": "[2]; 12 μg/ml Peptide, A Plasma", "value": "0.241 ± .076 U/ml"}, {"measurement": "Lovenox ® Neutralized", "setting": "[2]; 12 μg/ml Peptide, B Plasma", "value": "0.247 ± 0.031", "unit": "U/ml"}, {"measurement": "Lovenox ® Neutralized", "setting": "[2]; 12 μg/ml Peptide, C Plasma", "value": "0.276 ± 0.033", "unit": "U/ml"}, {"measurement": "Lovenox ® Neutralized", "setting": "[2]; 12 μg/ml Peptide, Citrate", "value": "0.457 ± .016 U/ml"}, {"measurement": "Lovenox ® Neutralized", "setting": "[2]; 60 μg/ml Peptide, A Plasma", "value": "0.453 ± .029 U/ml"}, {"measurement": "Lovenox ® Neutralized", "setting": "[2]; 60 μg/ml Peptide, B Plasma", "value": "0.474 ± 0.011", "unit": "U/ml"}, {"measurement": "Lovenox ® Neutralized", "setting": "[2]; 60 μg/ml Peptide, C Plasma", "value": "0.491 ± 0.029", "unit": "U/ml"}, {"measurement": "Lovenox ® Neutralized", "setting": "[2]; 60 μg/ml Peptide, Citrate", "value": "0.479 ± .006 U/ml"}, {"measurement": "Lovenox ® Neutralized", "setting": "[2]; 120 μg/ml Peptide, A Plasma", "value": "0.457 ± .010 U/ml"}, {"measurement": "Lovenox ® Neutralized", "setting": "[2]; 120 μg/ml Peptide, B Plasma", "value": "0.496 ± 0.028", "unit": "U/ml"}, {"measurement": "Lovenox ® Neutralized", "setting": "[2]; 120 μg/ml Peptide, C Plasma", "value": "0.471 ± 0.013", "unit": "U/ml"}, {"measurement": "Lovenox ® Neutralized", "setting": "[2]; 120 μg/ml Peptide, Citrate", "value": "0.516 ± .065 U/ml"}, {"measurement": "anti-LMWH effect in citrate compared with plasma", "setting": "[2]; Table 2A", "value": "greater anti-LMWH effect in citrate than in plasma"}, {"measurement": "Lovenox ® Neutralized", "setting": "[3]; blood of Lovenox-treated Patient Number 1", "value": 0.016, "unit": "U/ml"}, {"measurement": "Lovenox ® Neutralized", "setting": "[3]; blood of Lovenox-treated Patient Number 2", "value": 0.030, "unit": "U/ml"}, {"measurement": "Lovenox ® Neutralized", "setting": "[3]; blood of Lovenox-treated Patient Number 3", "value": 0.043, "unit": "U/ml"}, {"measurement": "Lovenox ® Neutralized", "setting": "[3]; blood of Lovenox-treated Patient Number 4", "value": 0.122, "unit": "U/ml"}, {"measurement": "Lovenox ® Neutralized", "setting": "[3]; blood of Lovenox-treated Patient Number 5", "value": 0.109, "unit": "U/ml"}, {"measurement": "Lovenox ® Neutralized", "setting": "[3]; blood of Lovenox-treated Patient Number 8", "value": 0.104, "unit": "U/ml"}, {"measurement": "Lovenox ® Neutralized", "setting": "[3]; blood of Lovenox-treated Patient Number 9", "value": 0.187, "unit": "U/ml"}, {"measurement": "Lovenox ® Neutralized", "setting": "[3]; blood of Lovenox-treated Patient Number 10", "value": 0.133, "unit": "U/ml"}, {"measurement": "Lovenox ® Neutralized", "setting": "[3]; blood of Lovenox-treated Patient Number 11", "value": 0.142, "unit": "U/ml"}]}
